In US11981658B2, “Substituted aminopyridine compounds as EGFR inhibitors” (YUHAN CORPORATION, priority 2021, dated 2024):
Where two headings read alike, the source gives them in different places.

Key:
[1] = molecular target: EGFR L858R/T790M/C797S (Homo sapiens, UniProt P00533, C797S/L858R/T790M); assay: Biochemical EGFR kinase inhibition assay (Lance Ultra TR-FRET), triple mutant L858R/T790M/C797S
Procedure, shortened: (§1)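 Kinase activity is measured by TR-FRET phosphopeptide detection. Compounds span 0.003 μM to 10 μM; the 1 h reaction at room temperature is quenched with EDTA, then labelled antibody (2 nM) is incubated 60 min before reading.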

[2] = molecular target: EGFR Del19/C797S (Homo sapiens, UniProt P00533, C797S/DEL746-750); assay: Biochemical EGFR kinase inhibition assay (Lance Ultra TR-FRET), double mutant del19/C797S
Procedure, shortened: as §1

[3] = molecular target: EGFR wildtype (WT) (Homo sapiens, UniProt P00533); assay: Biochemical EGFR kinase inhibition assay (Lance Ultra TR-FRET), wildtype
Procedure, shortened: as §1

[4] = molecular target: EGFR L858R/C797S (Homo sapiens, UniProt P00533, C797S/L858R); assay: Biochemical EGFR kinase inhibition assay (Lance Ultra TR-FRET), double mutant L858R/C797S
Procedure, shortened: as §1

[5] = molecular target: EGFR Del19/T790M/C797S (Homo sapiens, UniProt P00533, C797S/DEL746-750/T790M); assay: Biochemical EGFR kinase inhibition assay (Lance Ultra TR-FRET), triple mutant del19/T790M/C797S
Procedure, shortened: as §1

[6] = IC50 L858R/T790M/C797S (nM), 100 μM ATP
[7] = Km ATP, read-out: IC50 L858R/T790M/C797S (nM), Km ATP
[8] = IC50 Del19/C797S (nM), 100 μM ATP
[9] = Km ATP, read-out: IC50 Del19/C797S (nM), Km ATP
[10] = Km ATP, read-out: IC50 WT (nM), Km ATP
[11] = IC50 L858R/C797S (nM), 100 μM ATP
[12] = Km ATP, read-out: IC50 L858R/C797S (nM), Km ATP
[13] = IC50 Del19/T790M/C797S (nM), 100 μM ATP
[14] = Km ATP, read-out: IC50 Del19/T790M/C797S (nM), Km ATP

Chain of EGFR wildtype (WT) (P00533 25-1210): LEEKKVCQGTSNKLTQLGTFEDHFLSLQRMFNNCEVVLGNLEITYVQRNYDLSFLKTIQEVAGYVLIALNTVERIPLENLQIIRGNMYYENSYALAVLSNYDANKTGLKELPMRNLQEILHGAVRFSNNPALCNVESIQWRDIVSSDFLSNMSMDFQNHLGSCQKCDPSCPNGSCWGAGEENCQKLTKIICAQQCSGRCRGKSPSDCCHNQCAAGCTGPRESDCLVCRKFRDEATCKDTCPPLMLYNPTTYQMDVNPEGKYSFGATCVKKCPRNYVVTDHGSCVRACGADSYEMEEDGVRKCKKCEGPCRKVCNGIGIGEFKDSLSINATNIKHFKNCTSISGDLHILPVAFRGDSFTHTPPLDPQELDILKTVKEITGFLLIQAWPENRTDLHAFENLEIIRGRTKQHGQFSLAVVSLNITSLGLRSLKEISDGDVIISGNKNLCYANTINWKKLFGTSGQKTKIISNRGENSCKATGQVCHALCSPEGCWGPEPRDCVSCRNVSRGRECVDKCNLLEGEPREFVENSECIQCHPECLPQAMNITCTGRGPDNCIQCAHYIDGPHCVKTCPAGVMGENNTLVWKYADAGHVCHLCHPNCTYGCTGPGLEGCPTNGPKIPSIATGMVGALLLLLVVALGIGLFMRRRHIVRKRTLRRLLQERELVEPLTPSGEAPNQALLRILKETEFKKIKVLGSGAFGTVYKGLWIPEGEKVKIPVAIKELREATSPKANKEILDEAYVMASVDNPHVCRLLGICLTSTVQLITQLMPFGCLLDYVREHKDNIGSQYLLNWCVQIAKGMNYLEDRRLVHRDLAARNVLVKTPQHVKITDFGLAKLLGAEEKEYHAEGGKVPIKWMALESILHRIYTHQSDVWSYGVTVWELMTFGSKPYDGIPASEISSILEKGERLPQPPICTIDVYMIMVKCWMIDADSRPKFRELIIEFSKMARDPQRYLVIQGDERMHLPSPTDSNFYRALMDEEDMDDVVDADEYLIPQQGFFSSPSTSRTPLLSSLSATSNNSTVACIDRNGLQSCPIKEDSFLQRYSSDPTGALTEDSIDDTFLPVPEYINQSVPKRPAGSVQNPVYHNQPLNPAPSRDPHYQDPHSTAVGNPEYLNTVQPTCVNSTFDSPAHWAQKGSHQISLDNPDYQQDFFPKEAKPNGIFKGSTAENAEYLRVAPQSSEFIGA
Chain of EGFR L858R/C797S (P00533 25-1210 C797S/L858R): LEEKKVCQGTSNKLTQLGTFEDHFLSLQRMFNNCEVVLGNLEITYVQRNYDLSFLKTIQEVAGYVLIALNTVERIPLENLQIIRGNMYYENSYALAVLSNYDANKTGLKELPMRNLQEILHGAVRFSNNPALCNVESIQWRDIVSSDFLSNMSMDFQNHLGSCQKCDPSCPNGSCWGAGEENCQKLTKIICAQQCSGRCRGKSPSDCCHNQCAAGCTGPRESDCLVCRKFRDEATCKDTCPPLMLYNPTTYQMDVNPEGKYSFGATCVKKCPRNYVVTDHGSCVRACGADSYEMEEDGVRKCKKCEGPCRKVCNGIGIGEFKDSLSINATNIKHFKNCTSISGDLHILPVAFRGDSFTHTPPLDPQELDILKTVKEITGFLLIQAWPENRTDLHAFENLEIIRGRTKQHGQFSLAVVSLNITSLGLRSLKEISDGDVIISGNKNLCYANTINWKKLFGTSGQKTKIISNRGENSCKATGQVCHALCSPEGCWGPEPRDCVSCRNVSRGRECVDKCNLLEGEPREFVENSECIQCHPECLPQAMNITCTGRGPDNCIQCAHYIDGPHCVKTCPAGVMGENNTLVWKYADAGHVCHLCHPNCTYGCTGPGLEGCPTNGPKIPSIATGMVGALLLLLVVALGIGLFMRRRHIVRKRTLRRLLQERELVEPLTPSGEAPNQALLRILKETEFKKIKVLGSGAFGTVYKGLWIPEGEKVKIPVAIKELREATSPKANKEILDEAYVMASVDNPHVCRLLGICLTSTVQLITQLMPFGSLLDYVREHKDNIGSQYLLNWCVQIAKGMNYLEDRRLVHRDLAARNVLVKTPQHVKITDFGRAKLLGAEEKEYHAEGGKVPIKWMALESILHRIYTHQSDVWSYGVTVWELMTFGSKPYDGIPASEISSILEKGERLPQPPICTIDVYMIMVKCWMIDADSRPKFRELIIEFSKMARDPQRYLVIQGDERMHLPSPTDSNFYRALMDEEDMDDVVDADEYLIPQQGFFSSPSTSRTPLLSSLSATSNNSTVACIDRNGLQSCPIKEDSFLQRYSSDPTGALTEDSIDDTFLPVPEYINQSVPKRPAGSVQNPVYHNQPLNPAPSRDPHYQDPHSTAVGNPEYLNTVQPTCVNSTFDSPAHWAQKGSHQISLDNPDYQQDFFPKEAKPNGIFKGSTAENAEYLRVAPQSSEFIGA
Chain of EGFR Del19/C797S (P00533 with tags, fused parts or gaps DEL746-750/C797S): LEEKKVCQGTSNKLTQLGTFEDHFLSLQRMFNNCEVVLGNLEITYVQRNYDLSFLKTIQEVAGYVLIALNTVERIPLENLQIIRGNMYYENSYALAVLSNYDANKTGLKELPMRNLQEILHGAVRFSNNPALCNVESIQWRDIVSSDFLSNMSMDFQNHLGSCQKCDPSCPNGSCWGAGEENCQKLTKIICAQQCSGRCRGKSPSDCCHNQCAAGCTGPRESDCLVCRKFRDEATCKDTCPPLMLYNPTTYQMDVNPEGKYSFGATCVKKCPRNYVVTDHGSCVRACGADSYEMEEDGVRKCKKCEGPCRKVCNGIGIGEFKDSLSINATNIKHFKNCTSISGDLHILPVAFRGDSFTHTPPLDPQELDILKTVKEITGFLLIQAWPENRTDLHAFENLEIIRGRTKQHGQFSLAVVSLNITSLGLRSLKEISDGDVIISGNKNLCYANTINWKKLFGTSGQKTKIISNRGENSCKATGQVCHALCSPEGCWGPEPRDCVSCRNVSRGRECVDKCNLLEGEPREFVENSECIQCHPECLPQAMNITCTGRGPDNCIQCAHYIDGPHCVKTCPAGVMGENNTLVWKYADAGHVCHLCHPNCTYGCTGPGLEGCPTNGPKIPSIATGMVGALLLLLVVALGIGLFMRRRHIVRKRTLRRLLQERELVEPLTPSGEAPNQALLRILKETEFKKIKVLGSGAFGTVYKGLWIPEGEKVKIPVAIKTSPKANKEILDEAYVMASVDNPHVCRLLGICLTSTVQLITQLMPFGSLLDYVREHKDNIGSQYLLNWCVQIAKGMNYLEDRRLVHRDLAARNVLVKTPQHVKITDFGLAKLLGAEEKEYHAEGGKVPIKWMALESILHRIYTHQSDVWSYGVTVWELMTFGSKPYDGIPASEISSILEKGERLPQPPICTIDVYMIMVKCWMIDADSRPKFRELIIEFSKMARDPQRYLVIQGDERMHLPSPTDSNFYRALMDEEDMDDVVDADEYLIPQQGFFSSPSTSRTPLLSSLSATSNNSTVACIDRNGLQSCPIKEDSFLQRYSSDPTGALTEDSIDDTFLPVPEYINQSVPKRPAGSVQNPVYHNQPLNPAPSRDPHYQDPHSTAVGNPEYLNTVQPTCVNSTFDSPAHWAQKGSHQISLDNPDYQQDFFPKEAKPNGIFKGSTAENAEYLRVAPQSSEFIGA
Chain of EGFR Del19/T790M/C797S (P00533 with tags, fused parts or gaps DEL746-750/T790M/C797S): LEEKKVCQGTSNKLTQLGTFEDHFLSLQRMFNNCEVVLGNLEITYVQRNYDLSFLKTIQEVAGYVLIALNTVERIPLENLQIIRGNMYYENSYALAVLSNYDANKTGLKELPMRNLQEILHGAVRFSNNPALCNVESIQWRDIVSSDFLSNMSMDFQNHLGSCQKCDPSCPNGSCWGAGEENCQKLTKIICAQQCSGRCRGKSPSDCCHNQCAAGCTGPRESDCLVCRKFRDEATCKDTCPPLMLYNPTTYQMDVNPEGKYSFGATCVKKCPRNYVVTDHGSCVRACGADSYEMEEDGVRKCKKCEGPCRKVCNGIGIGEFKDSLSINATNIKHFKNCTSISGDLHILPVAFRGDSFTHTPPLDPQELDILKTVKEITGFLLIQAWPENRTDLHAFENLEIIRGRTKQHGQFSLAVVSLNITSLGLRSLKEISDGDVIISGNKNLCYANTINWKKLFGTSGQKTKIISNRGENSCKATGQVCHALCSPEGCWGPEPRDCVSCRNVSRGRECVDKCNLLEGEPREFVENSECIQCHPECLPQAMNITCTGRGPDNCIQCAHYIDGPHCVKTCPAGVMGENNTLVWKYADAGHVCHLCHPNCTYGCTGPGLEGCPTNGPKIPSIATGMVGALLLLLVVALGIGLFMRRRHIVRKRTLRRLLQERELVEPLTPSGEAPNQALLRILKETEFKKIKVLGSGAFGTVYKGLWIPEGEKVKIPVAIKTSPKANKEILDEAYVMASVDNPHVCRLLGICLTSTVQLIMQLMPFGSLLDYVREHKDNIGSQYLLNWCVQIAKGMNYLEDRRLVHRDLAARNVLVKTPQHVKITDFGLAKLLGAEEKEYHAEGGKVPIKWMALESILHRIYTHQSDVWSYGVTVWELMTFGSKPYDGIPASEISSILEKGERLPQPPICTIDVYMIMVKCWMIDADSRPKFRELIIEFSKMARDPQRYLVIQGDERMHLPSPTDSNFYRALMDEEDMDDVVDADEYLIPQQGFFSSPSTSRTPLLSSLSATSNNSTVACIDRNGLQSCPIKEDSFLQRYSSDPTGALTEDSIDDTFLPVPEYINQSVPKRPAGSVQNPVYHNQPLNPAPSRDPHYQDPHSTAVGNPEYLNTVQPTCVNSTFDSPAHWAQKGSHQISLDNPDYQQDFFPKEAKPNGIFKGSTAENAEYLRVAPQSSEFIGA

| Compound | IC50 [1, 6] | IC50 [1, 7] | IC50 [2, 8] | IC50 [2, 9] | IC50 ([3]; IC50 WT (nM), 100 μM ATP) | IC50 [3, 10] | IC50 [4, 11] | IC50 [4, 12] | IC50 [5, 13] | IC50 [5, 14] |
| --- | --- | --- | --- | --- | --- | --- | --- | --- | --- | --- |
| CC1(O)CC2(CCN(c3cc(Nc4ccnc(-c5cnn(S(=O)(=O)C6CC6)c5)n4)ncc3C#Cc3cnn(CC(F)(F)F)c3)CC2)C1 [Example 347, 7-(2-((2-(1-(Cyclopropylsulfonyl)-1H-pyrazol-4-yl)pyrimidin-4-yl)amino)-5-((1-(2,2,2-trifluoroethyl)-1H-pyrazol-4-yl)ethynyl)pyridin-4-yl)-2-methyl-7-azaspiro[3.5]nonan-2-ol] | 1.7 nM | 3.2 nM | 8.4 nM | 9.2 nM | 7140 nM | 74.3 nM | 11.7 nM | 5.9 nM | 6 nM | 5.4 nM |
| CC1(CO)CCN(c2cc(Nc3ccnc(-c4cnn(S(=O)(=O)C5CC5)c4)n3)ncc2C#Cc2cnn(CC(F)(F)F)c2)CC1 [Example 348, (1-(2-((2-(1-(Cyclopropylsulfonyl)-1H-pyrazol-4-yl)pyrimidin-4-yl)amino)-5-((1-(2,2,2-trifluoroethyl)-1H-pyrazol-4-yl)ethynyl)pyridin-4-yl)-4-methylpiperidin-4-yl)methanol] | 0.8 nM | 1.4 nM | 4.9 nM | 4.7 nM | 651 nM | 14.1 nM | 14.3 nM | 1.1 nM | 2.1 nM | 4.2 nM |
| CN(C)CCC1CCN(c2cc(Nc3ccnc(-c4cnn(S(=O)(=O)C5CC5)c4)n3)ncc2C#Cc2cnn(CC(F)(F)F)c2)CC1 [Example 349, 2-(1-(Cyclopropylsulfonyl)-1H-pyrazol-4-yl)-N-(4-(4-(2-(dimethylamino)ethyl)piperidin-1-yl)-5-((1-(2,2,2-trifluoroethyl)-1H-pyrazol-4-yl)ethynyl)pyridin-2-yl)pyrimidin-4-amine] | 1 nM | 0.5 nM | 4.8 nM | 2.6 nM | 844 nM | 9.1 nM | 9.4 nM | 1.4 nM | 1.5 nM | 1.5 nM |
| CC1(C#Cc2cnc(Nc3ccnc(-c4cnn(S(=O)(=O)C5CC5)c4)n3)cc2N[C@H]2CC[C@@H](O)CC2)COC1 [Example 350, (1s,4s)-4-((2-((2-(1-(Cyclopropylsulfonyl)-1H-pyrazol-4-yl)pyrimidin-4-yl)amino)-5-((3-methyloxetan-3-yl)ethynyl)pyridin-4-yl)amino)cyclohexan-1-ol] | 13.9 nM | – | 81.4 nM | – | > 10000 nM | – | 954 nM | – | 2.8 nM | – |
| CC1(CO)CCN(c2cc(Nc3ccnc(-c4cnn(S(=O)(=O)C5CC5)c4)n3)ncc2C#CC2(O)CCC2)CC1 [Example 351, 1-((6-((2-(1-(Cyclopropylsulfonyl)-1H-pyrazol-4-yl)pyrimidin-4-yl)amino)-4-(4-(hydroxymethyl)-4-methylpiperidin-1-yl)pyridin-3-yl)ethynyl)cyclobutan-1-ol] | 1.6 nM | 0.8 nM | 3.7 nM | 4.9 nM | 7620 nM | 44.2 nM | 77.8 nM | 12.8 nM | 1.2 nM | 1.6 nM |
| CC1(CO)CCN(c2cc(Nc3ccnc(-c4cnn(S(=O)(=O)C5CC5)c4)n3)ncc2C#CC2COC2)CC1 [Example 352, (1-(2-((2-(1-(Cyclopropylsulfonyl)-1H-pyrazol-4-yl)pyrimidin-4-yl)amino)-5-(oxetan-3-ylethynyl)pyridin-4-yl)-4-methylpiperidin-4-yl)methanol] | 0.2 nM | 0.1 nM | 0.5 nM | 0.6 nM | 820 nM | 5.5 nM | 9.5 nM | 1.6 nM | 0.3 nM | 0.3 nM |
| O=S(=O)(C1CC1)n1cc(-c2nccc(Nc3cc(N[C@H]4CC[C@@H](O)CC4)c(C#CC4COC4)cn3)n2)cn1 [Example 353, (1s,4s)-4-((2-((2-(1-(Cyclopropylsulfonyl)-1H-pyrazol-4-yl)pyrimidin-4-yl)amino)-5-(oxetan-3-ylethynyl)pyridin-4-yl)amino)cyclohexan-1-ol] | 0.2 nM | 0.1 nM | 0.6 nM | 1 nM | > 10000 nM | 11.3 nM | 16.6 nM | 3.3 nM | 0.2 nM | 0.2 nM |
| CC1(CO)CCN(c2cc(Nc3ccnc(-c4cnn(S(=O)(=O)C5CC5)c4)n3)ncc2C#CC2(O)COC2)CC1 [Example 354, 3-((6-((2-(1-(Cyclopropylsulfonyl)-1H-pyrazol-4-yl)pyrimidin-4-yl)amino)-4-(4-(hydroxymethyl)-4-methylpiperidin-1-yl)pyridin-3-yl)ethynyl)oxetan-3-ol] | 0.2 nM | 0.1 nM | 0.5 nM | 0.3 nM | 1630 nM | 5.1 nM | 8.6 nM | 0.8 nM | 0.2 nM | 0.2 nM |
| CC1(CO)CCN(c2cc(Nc3ccnc(-c4cnn(S(=O)(=O)C5CC5)c4)n3)ncc2C#CC2(O)CCOC2)CC1 (stereo not drawn) [Example 355, 3-((6-((2-(1-(Cyclopropylsulfonyl)-1H-pyrazol-4-yl)pyrimidin-4-yl)amino)-4-(4-(hydroxymethyl)-4-methylpiperidin-1-yl)pyridin-3-yl)ethynyl)tetrahydrofuran-3-ol] | 0.2 nM | 0.1 nM | 0.4 nM | 0.2 nM | 1740 nM | 4.8 nM | 7.4 nM | 0.5 nM | 0.2 nM | 0.2 nM |
| O=S(=O)(C1CC1)n1cc(-c2nccc(Nc3cc(NC4CCC(O)CC4)c(C#CC4(O)CCOC4)cn3)n2)cn1 (stereo not drawn) [Example 356, 3-((6-((2-(1-(Cyclopropylsulfonyl)-1H-pyrazol-4-yl)pyrimidin-4-yl)amino)-4-(((1 s, 4s)-4-hydroxycyclohexyl)amino)pyridin-3-yl)ethynyl)tetrahydrofuran-3-ol] | 0.3 nM | 0.1 nM | 0.9 nM | 0.6 nM | 5310 nM | 20.1 nM | 24.5 nM | 2 nM | 0.2 nM | 0.2 nM |
| CC1(CO)CCN(c2cc(Nc3ccnc(-c4cnn(S(=O)(=O)C5CC5)c4)n3)ncc2C#CC2(O)CCCOC2)CC1 (stereo not drawn) [Example 357, 3-((6-((2-(1-(Cyclopropylsulfonyl)-1H-pyrazol-4-yl)pyrimidin-4-yl)amino)-4-(4-(hydroxymethyl)-4-methylpiperidin-1-yl)pyridin-3-yl)ethynyl)tetrahydro-2H-pyran-3-ol] | 0.4 nM | 0.1 nM | 1.5 nM | 1.4 nM | 4710 nM | 9.2 nM | 14 nM | 1.5 nM | 0.3 nM | 0.2 nM |
| CC1(C#Cc2cnc(Nc3ccnc(-c4cnn(S(=O)(=O)C5CC5)c4)n3)cc2N2CCC(C)(CO)CC2)CC1 [Example 358, (1-(2-((2-(1-(Cyclopropylsulfonyl)-1H-pyrazol-4-yl)pyrimidin-4-yl)amino)-5-((1-methylcyclopropyl)ethynyl)pyridin-4-yl)-4-methylpiperidin-4-yl)methanol] | 1.6 nM | 0.7 nM | 3.7 nM | 1.9 nM | 6280 nM | 22.9 nM | 30.2 nM | 3.8 nM | 1.7 nM | 1.2 nM |
| CC1(C#Cc2cnc(Nc3ccnc(-c4cnn(S(=O)(=O)C5CC5)c4)n3)cc2N[C@H]2CC[C@@H](O)CC2)CC1 [Example 359, (1s,4s)-4-((2-((2-(1-(Cyclopropylsulfonyl)-1H-pyrazol.-4-yl)pyrimidin-4-yl)amino)-5-((1-methylcyclopropyl)ethynyl)pyridin-4-yl)amino)cyclohexan-1-ol] | 1.5 nM | 0.4 nM | 2.6 nM | 2.2 nM | > 10000 nM | 26.7 nM | 55.1 nM | 3.6 nM | 1.6 nM | 0.9 nM |
| CN1CCN(Cc2ccc(C#Cc3cnc(Nc4ccnc(-c5cnn(S(=O)(=O)C6CC6)c5)n4)cc3N[C@H]3CC[C@@H](CO)CC3)cc2)CC1 [Example 360, ((1s,4s)-4-((2-((2-(1-(Cyclopropylsulfonyl)-1H-pyrazol-4-yl)pyrimidin-4-yl)amino)-5-((4-((4-methylpiperazin-1-yl)methyl)phenyl)ethynyl)pyridin-4-yl)amino)cyclohexyl)methanol] | 0.9 nM | 0.3 nM | 2.7 nM | 2.3 nM | 1130 nM | 3.8 nM | 7.7 nM | 2.5 nM | 1.1 nM | 0.8 nM |
